The text below walks through data of ChEMBL document CHEMBL4715829, “Heterodimeric Rifampicin-Tobramycin conjugates break intrinsic resistance of Pseudomonas aeruginosa to doxycycline and chloramphenicol in vitro and in a Galleria mellonella in vivo model” (Eur J Med Chem, 2019).

Data set [1] relates to Pseudomonas aeruginosa. The experiment in a line: Antibacterial activity against Pseudomonas aeruginosa PAO1 assessed as fractional inhibitory concentration index in presence of Ceftazidime incubated for 18 hrs by broth microdilution assay based checkerboard assay. The class given is functional. In general terms: In broth dilution the organism is exposed to a series of concentrations in liquid medium.

In data set [2] the test system is Pseudomonas aeruginosa. The experiment in a line: Antibacterial activity against Pseudomonas aeruginosa 114228 assessed as reduction in bacterial growth incubated for 18 hrs by broth microdilution assay. It counts as functional.
The subject of data set [3] is Enterococcus faecalis. The experiment in a line: Antibacterial activity against Enterococcus faecalis ATCC 29212 assessed as reduction in bacterial growth incubated for 18 hrs by broth microdilution assay. It counts as functional.
For data set [4], the system named is Pseudomonas aeruginosa. The experiment in a line: Antibacterial activity against Pseudomonas aeruginosa ATCC 27853 assessed as reduction in bacterial growth incubated for 18 hrs by broth microdilution assay. The class given is functional.
The subject of data set [5] is Pseudomonas aeruginosa. As to the kind of experiment: Antibacterial activity against Pseudomonas aeruginosa 260-97103 assessed as reduction in bacterial growth incubated for 18 hrs by broth microdilution assay. The class given is functional.
The nature of data set [6]: Cytotoxicity against human HepG2 cells assessed as cell viability at 50 uM incubated for 48 hrs by prestoblue assay. It counts as cell-based. To be noted: read-out: Activity.
The test system of data set [7] is Pseudomonas aeruginosa. The experiment in a line: Antibacterial activity against Pseudomonas aeruginosa PAO1 assessed as reduction in bacterial growth by measuring trimethoprim MIC at <=10 uM in presence of trimethoprim incubated for 18 hrs by broth microdilution assay based checkerboard assay (reference value: 64 microg/ml). It counts as functional. To be noted: dose microM <=10.

Data set [8] deals with Pseudomonas aeruginosa. As to the kind of experiment: Antibacterial activity against Pseudomonas aeruginosa PAO1 assessed as fractional inhibitory concentration index in presence of Trimethoprim incubated for 18 hrs by broth microdilution assay based checkerboard assay. It counts as functional.
Data set [9] has as its system Pseudomonas aeruginosa. The experiment in a line: Antibacterial activity against Pseudomonas aeruginosa 91433 assessed as reduction in bacterial growth incubated for 18 hrs by broth microdilution assay. It counts as functional.
Data set [10] relates to Pseudomonas aeruginosa. As to the kind of experiment: Antibacterial activity against Pseudomonas aeruginosa PAO1 assessed as reduction in bacterial growth by measuring novobiocin MIC at <=10 uM in presence of novobiocin incubated for 18 hrs by broth microdilution assay based checkerboard assay (reference value: 512 microg/ml). The class given is functional. To be noted: dose microM <=10.

Data set [11] deals with Stenotrophomonas maltophilia. As to the kind of experiment: Antibacterial activity against Stenotrophomonas maltophilia CAN-ICU 62584 assessed as reduction in bacterial growth incubated for 18 hrs by broth microdilution assay. It counts as functional.
Data set [12] has as its system Enterococcus faecium. The experiment in a line: Antibacterial activity against Enterococcus faecium ATCC 27270 assessed as reduction in bacterial growth incubated for 18 hrs by broth microdilution assay. It counts as functional.
Data set [13] concerns Acinetobacter baumannii. As to the kind of experiment: Antibacterial activity against Acinetobacter baumannii CAN-ICU 63169 assessed as reduction in bacterial growth incubated for 18 hrs by broth microdilution assay. The class given is functional.
Data set [14] relates to Klebsiella pneumoniae. The experiment in a line: Antibacterial activity against Klebsiella pneumoniae ATCC 13883 assessed as reduction in bacterial growth incubated for 18 hrs by broth microdilution assay. The class given is functional.
In data set [15] the test system is Pseudomonas aeruginosa. As to the kind of experiment: Antibacterial activity against Pseudomonas aeruginosa PAO1 assessed as fractional inhibitory concentration index in presence of Nitrofurantoin incubated for 18 hrs by broth microdilution assay based checkerboard assay. The class given is functional.
Data set [16] concerns Staphylococcus epidermidis. The experiment in a line: Antibacterial activity against methicillin-resistance Staphylococcus epidermidis CAN-ICU 61589 (CAZ>32) assessed as reduction in bacterial growth incubated for 18 hrs by broth microdilution assay. It counts as functional.
The test system of data set [17] is Pseudomonas aeruginosa. As to the kind of experiment: Antibacterial activity against Pseudomonas aeruginosa 100036 assessed as fractional inhibitory concentration incubated for 18 hrs in presence of doxycycline by broth microdilution assay. The class given is functional.
For data set [18], the system named is Pseudomonas aeruginosa. The experiment in a line: Antibacterial activity against Pseudomonas aeruginosa 262-101856 assessed as fractional inhibitory concentration incubated for 18 hrs in presence of chloramphenicol by broth microdilution assay. It counts as functional.
The subject of data set [19] is Pseudomonas aeruginosa. As to the kind of experiment: Antibacterial activity against Pseudomonas aeruginosa 100036 assessed as fractional inhibitory concentration index in presence of chloramphenicol incubated for 18 hrs by broth microdilution assay. The class given is functional.
In data set [20] the test system is Pseudomonas aeruginosa. The experiment in a line: Antibacterial activity against Pseudomonas aeruginosa 262-101856 assessed as fractional inhibitory concentration incubated for 18 hrs in presence of doxycycline by broth microdilution assay. It counts as functional.
The test system of data set [21] is Pseudomonas aeruginosa. The experiment in a line: Antibacterial activity against Pseudomonas aeruginosa 264-101354 assessed as fractional inhibitory concentration index in presence of doxycycline incubated for 18 hrs by broth microdilution assay. The class given is functional.

Converted amounts (≈) assume the structure as drawn.

In the case of `CO[C@H]1/C=C/O[C@@]2(C)Oc3c(C)c(O)c4c(O)c(c(/C=N/N5CCN(Cc6cn(CCCCO[C@@H]7[C@@H](O[C@H]8O[C@H](CO)[C@@H](O)[C@H](N)[C@H]8O)[C@H](N)C[C@H](N)[C@H]7O[C@H]7O[C@H](CN)[C@@H](O)C[C@H]7N)nn6)CC5)c(O)c4c3C2=O)NC(=O)/C(C)=C\C=C\[C@H](C)[C@H](O)[C@@H](C)[C@@H](O)[C@@H](C)[C@H](OC(C)=O)[C@@H]1C.O=C(O)C(F)(F)F.O=C(O)C(F)(F)F.O=C(O)C(F)(F)F.O=C(O)C(F)(F)F.O=C(O)C(F)(F)F`, the “fractional inhibitory concentration index (FICI)” value is on record as 1.03 in data set [1], 1.03 in [8] and 1 in [15]. The MIC in data set [2] was more than 128 µg/mL; in [3], more than 32 µg/mL; in data set [4], more than 32 µg/mL; in data set [5] it was more than 128 µg/mL; in data set [7], 64 µg/mL; in [9], more than 128 µg/mL. The MIC in data set [10] was 256 µg/mL; in [11], more than 32 µg/mL; in [12], 32 µg/mL; in [13], more than 32 µg/mL; in [14] it was more than 32 µg/mL; in data set [16] it was 2 µg/mL. In addition, in data set [6], the viability at 48 h, 50 µM is more than 70%.

On to `CO[C@H]1/C=C/O[C@@]2(C)Oc3c(C)c(O)c4c(O)c(c(/C=N/N5CCN(C)CC5)c(O)c4c3C2=O)NC(=O)/C(C)=C\C=C\[C@H](C)[C@H](O)[C@@H](C)[C@@H](O)[C@@H](C)[C@H](OC(C)=O)[C@@H]1C` [RIFAMPIN], for which the MIC in data set [2] was determined as 16 µg/mL (≈ 19.4 µM); in [3], 1 µg/mL (≈ 1.22 µM); in data set [4] it was 32 µg/mL (≈ 38.9 µM); in data set [5] it was 16 µg/mL (≈ 19.4 µM); in [9] it was 16 µg/mL (≈ 19.4 µM); in [11] it was 32 µg/mL (≈ 38.9 µM). Also, the MIC in data set [12] is not above 0.25 µg/mL; in data set [13] it was 8 µg/mL (≈ 9.72 µM); in data set [14], 16 µg/mL (≈ 19.4 µM); in data set [16], not above 0.25 µg/mL. The FIC in data set [17] is 0.25; in data set [18] it was 0.5; in data set [20], 0.5. Further, the “fractional inhibitory concentration index (FICI)” value in data set [19] was found to be 1.5.

`NC[C@H]1O[C@H](O[C@H]2[C@H](O)[C@@H](O[C@H]3O[C@H](CO)[C@@H](O)[C@H](N)[C@H]3O)[C@H](N)C[C@@H]2N)[C@H](N)C[C@@H]1O` [TOBRAMYCIN]: the minimal inhibitory concentration (MIC) is 8 µg/mL (≈ 17.1 µM) in data set [2]; 8 µg/mL (≈ 17.1 µM) in [3]; 1 µg/mL (≈ 2.14 µM) in data set [4]; 32 µg/mL (≈ 68.4 µM) in data set [5]; 16 µg/mL (≈ 34.2 µM) in [9]; more than 512 µg/mL in data set [11]. Moreover, the MIC is 16 µg/mL (≈ 34.2 µM) in data set [12], 32 µg/mL (≈ 68.4 µM) in data set [13], not above 0.25 µg/mL in data set [14] and 2 µg/mL (≈ 4.28 µM) in data set [16]. For the same compound, the FIC in data set [17] was 0.5; in data set [18], “<=0.5”; in data set [20] it was “<=0.5”. Also, the “fractional inhibitory concentration index (FICI)” value in data set [21] and in data set [19] was 1.5 throughout.

For orientation: MIC means the lowest concentration that inhibits growth of the organism.
